Experimental data published in US11439628B2, “Use of non-steroidal mineralocorticoid receptor antagonists alone or in combination for the treatment of muscular or neuromuscular diseases” (Bayer Aktiengesellschaft, priority 2018, dated 2022).

Key:
[1] = tested on: MDX-mice; assay: Grip strength test (front-leg muscle strength) in MDX mice; format: in vivo; details: for GS/BW trial 5 / GS/BW trial 1 / Grip Strength trial 1 / Grip Strength trial 5: MDX-mice treated 16 weeks via chow (150 ppm BAY 41-2272 or 100 ppm Finerenone), Mean ± SEM; for GS/BW trial 5 / GS/BW trial 1: grip strength related to body weight; for GS/BW trial 5: fatigued mice; for GS/BW trial 1: rested mice; for Grip Strength trial 1: highest force from rested mice; for Grip Strength trial 5: highest force in fatigued mice; for Effect on muscle strength (grip strength), in words: MDX-mice treated 16 weeks, each compound alone; for Efficacy of monotherapy compared with combination of steroidal MR antagonist (spironolactone) and ACE inhibitor (lisinopril): regarding grip strength, base myocardial strain rate and forces after lengthening contractions of the EDL, comparator from Lowe et al.
Source text: (§1) Preferentially mice were used, especially transgenic mice (B6.Cg-^Terctm1Rdp Dmd^mdx-4Cv/BlauJ; Jackson Laboratories, strain Nr.: 023535; Dystrophin-deficient, utrophin haplo-insufficient (utrn +/−; mdx)). These so called MDX mice carry a mutation in the dystrophin gene which reflects the phenotype and clinical situation of patients with muscular dystrophies (Sacco et al.; Cell. 2010 Dec. 23; 143(7):1059-71, Mourkioti et al. Nat Cell Biol. 2013 August; 15(8):895-904).
(§2) As read-outs were preferentially used: • In vitro, hydroxyproline measurement to assess fibrotic tissue. To analyze the collagen content in tissue samples, hydroxyproline assays were performed. After digestion of the tissue (e.g. heart and muscle) in 6M HCl for three hours at 120° C., chloramine T (0.06 M) was added and samples were mixed and incubated for 20 min at room temperature. 3.15 M perchloric acid and 20% p-dimethylaminobenzaldehyde were added and samples were incubated for additional 20 min at 60° C. The absorbance was determined at 557 nm. • In vitro, semiquantitative RT/PCR (TaqMan PCR) was used to assess gene expression. Mice were euthanized and hearts and muscles (e.g. EDL=extensor digitorum longus muscle, diaphragm) were collected. Total RNA was isolated and gene expression was semiquantified after reverse transcription (RT) reaction via TaqMan polymerase chain reaction (PCR). • In vitro, histopathology to assess heart and muscle damage. Mice were euthanized and hearts and muscles (e.g. EDL, diaphragm) were collected. Cryosections were prepared and stained with Hematoxylin and Eosin (H&E) to assess overall histopathology. • Ex vivo, contractility measurements of muscle contraction in isolated muscles (e.g. EDL, diaphragm) to assess muscle function and contractility. Isolated muscles were stretched to optimal length using twitch contractions (evoked by a single 4 ms pulse). After 10 minutes, a tetanus contraction was performed (150 Hz for 250 ms). After another 5 min rest period, 6 eccentric contractions (150 Hz for 450 ms, subjected to a 3% stretch for the final 200 ms of contraction) were done with two minutes of rest between the first 5 stimulations and 15 minutes of rest between the fifth and sixth stimulation. • In vivo, non-invasive echocardiography and computer tomography to assess heart and cardiovascular function. Mice were anaesthetized and heart structure and function was assessed non-invasively by using the echocardiograph type Vevo2100. In addition, cardiac function was investigated in anesthetized mice by using magnetic resonance imaging (MRI) technique on a 9.4 or 11.7 Tesla 30 mm bore system (Bruker Biospin) together with standard electrocardiographic (ECG). Myocardial strain and strain rate were assessed using vector-based tracking software (Vector Velocity Imaging, Siemens). • In vivo, invasive left-ventricular function and pressure-volume relationship to assess heart and cardiovascular function. Invasive left-ventricular hemodynamics were performed in anaesthetized mice using a pressure catheter and a PN loop catheter. • In vivo assessment of muscle force (Hanging wire test, four limb hanging test, grip strength test) to asses muscle function. For the hanging wire and four limb hanging test, conscious mice are freely hanging on a grid and hanging time is recorded and corrected for body weight of the mice. The grip strength (GS) measurements to investigate front-leg muscle strength were performed in conscious mice by using a grip strength meter (Columbus Instruments). Mice were trained to hold on with their front paws on a wire mesh grid and carefully pulled backwards. This procedure was repeated up to 5 times with one minute breaks between measurements and the maximal power in Newton (N) was registered. The highest grid strength value (GS) in Newton was reported and related to body weight (BW) in mg. […] (Table 1). • In vivo assessment of physical capacity was assessed. […]

[2] = tested on: MDX-mice; assay: Endocardial circumferential peak systolic strain rate at the base of the heart (MRI, vector-based tracking); format: in vivo; details: for Effect on heart function (systolic strain rate), in words: MDX-mice treated 16 weeks; for Base_PeakSysSR_Lat (endocardial circumferential S−1) / Base_PeakSysSR_Mean (endocardial circumferential S−1) / Base_PeakSysSR_Septum (endocardial circumferential S−1): MDX-mice treated 16 weeks via chow (150 ppm BAY 41-2272 or 100 ppm Finerenone), base of the heart, Mean ± SEM; for Base_PeakSysSR_Lat (endocardial circumferential S−1): lateral; for Base_PeakSysSR_Mean (endocardial circumferential S−1): mean; for Base_PeakSysSR_Septum (endocardial circumferential S−1): septum
Source text: as §1, §2

[3] = tested on: MDX-mice; assay: EDL eccentric contractions (ex vivo contractility of isolated muscle from treated mice); format: in vivo; details: for Ecc2 (% Ecc1) / Ecc5 (% Ecc1) / Post-rest Ecc6 (% Ecc1): EDL of MDX-mice treated 16 weeks via chow (150 ppm BAY 41-2272 or 100 ppm Finerenone), Mean ± SEM; for Ecc2 (% Ecc1): 2nd eccentric contraction; for Ecc5 (% Ecc1): 5th eccentric contraction; for Post-rest Ecc6 (% Ecc1): 6th eccentric contraction after 15 minutes of rest; for Effect on muscle strength (EDL eccentric contractions), in words: MDX-mice treated 16 weeks
Source text: as §1, §2

[4] = rats, [14C]-labeled; Kolkhof et al. 2014; cited from earlier work
[5] = tested on: DMD boys; details: added to background ACE inhibitor or ARB therapy; at 12 months; Raman et al. 2015; cited from earlier work

SMILES	GS/BW trial 5 [1] [mN/g]	GS/BW trial 1 [1] [mN/g]	Grip Strength trial 1 [1] [N]	Grip Strength trial 5 [1] [N]	Effect on muscle strength (grip strength), in words [1]	Effect on heart function (systolic strain rate), in words [2]	Base_PeakSysSR_Lat (endocardial circumferential S−1) [2] [S−1]	Base_PeakSysSR_Mean (endocardial circumferential S−1) [2] [S−1]	Base_PeakSysSR_Septum (endocardial circumferential S−1) [2] [S−1]	Ecc2 (% Ecc1) [3] [% Ecc1]	Ecc5 (% Ecc1) [3] [% Ecc1]	Post-rest Ecc6 (% Ecc1) [3] [% Ecc1]	Effect on muscle strength (EDL eccentric contractions), in words [3]	Efficacy of monotherapy compared with combination of steroidal MR antagonist (spironolactone) and ACE inhibitor (lisinopril) [1]	Efficacy of monotherapy compared with combination of steroidal MR antagonist (spironolactone) and ACE inhibitor (lisinopril) ([1]; listed as (S)-4-(4-Cyano-2-methoxyphenyl)-5-ethoxy-2,8-dimethyl-1,4-dihydro-1,6-naphthyrid)	Tissue distribution into cardiac and kidney tissues [4]	Effect on left ventricular systolic function (LV circumferential strain) [5]
Nc1nc(-c2nn(Cc3ccccc3F)c3ncccc23)ncc1C1CC1 [BAY41-2272, 3-(4-amino-5-cyclopropylpyrimidin-2-yl)-1-(2-fluorobenzyl)-1H-pyrazolo[3,4-b]pyridine]	33.9 ± 0.9	38.3 ± 1.1	1.0 ± 0.04	0.9 ± 0.04	improvement of muscle strength	attenuation of heart function decline	0.37 ± 0.02	0.36 ± 0.02	0.39 ± 0.03	86 ± 2	60 ± 5	60 ± 5	improvement of muscle strength	–	–	–	–
CCOc1ncc(C)c2c1[C@H](c1ccc(C#N)cc1OC)C(C(N)=O)=C(C)N2 [Finerenone, (S)-4-(4-Cyano-2-methoxyphenyl)-5-ethoxy-2,8-dimethyl-1,4-dihydro-1,6-naphthyridin-3-carboxamid]	37.5 ± 1.1	40.3 ± 1	1.1 ± 0.04	1.1 ± 0.04	improvement of muscle strength	attenuation of heart function decline	0.39 ± 0.04	0.35 ± 0.03	0.34 ± 0.04	94 ± 5	71 ± 7	72 ± 6	improvement of muscle strength	superior	as effective as	balanced distribution	–
COC(=O)[C@@H]1CC2=CC(=O)CC[C@]2(C)[C@@]23O[C@@H]2C[C@@]2(C)[C@@H](CC[C@@]24CCC(=O)O4)[C@H]13 [eplerenone]	–	–	–	–	–	–	–	–	–	–	–	–	–	–	–	–	attenuates the progressive decline in left ventricular systolic function
